Each block holds one compound with its values, some of them ahead of it.
Columns and labels:
Experiment in all cases: Caliper, Mobility shift assay off-chip
MAPK1 (mouse) = details: accession and sequence are those of the human protein
PRKACA (cow) = details: accession and sequence are those of the human protein
MARK2 (human) = MARK2 (human) (UniProt Q7KZI7)
ABL2 (human) = ABL2 (human) (UniProt P42684)
CSNK2A2 (human) = CSNK2A2 (human) (UniProt P19784)
[1] = system: KIT (human), P10721 [D816V]
CAMK2D (human) = CAMK2D (human) (UniProt Q13557)
[2] = system: EGFR (human), P00533 [T790M]
MAPKAPK3 (human) = MAPKAPK3 (human) (UniProt Q16644)
Chain of MAPKAPK3 (human) (Q16644 whole entry, looked up): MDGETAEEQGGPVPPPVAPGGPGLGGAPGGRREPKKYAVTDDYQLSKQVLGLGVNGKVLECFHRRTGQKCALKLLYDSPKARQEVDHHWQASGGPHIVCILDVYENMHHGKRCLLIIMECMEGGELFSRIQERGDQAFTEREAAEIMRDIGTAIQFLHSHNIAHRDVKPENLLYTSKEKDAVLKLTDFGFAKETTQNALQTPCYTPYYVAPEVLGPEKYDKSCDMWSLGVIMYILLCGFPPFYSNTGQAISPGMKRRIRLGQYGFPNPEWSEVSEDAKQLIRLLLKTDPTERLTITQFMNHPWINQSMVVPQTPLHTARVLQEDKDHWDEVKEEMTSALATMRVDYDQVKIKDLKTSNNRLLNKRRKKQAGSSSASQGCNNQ

PRKCE (human) = PRKCE (human) (UniProt Q02156)
AXL (human) = AXL (human) (UniProt P30530)
MAPK10 (human) = MAPK10 (human) (UniProt P53779)
STK33 (human) = STK33 (human) (UniProt Q9BYT3)
Chain of STK33 (human) (Q9BYT3 whole entry, looked up): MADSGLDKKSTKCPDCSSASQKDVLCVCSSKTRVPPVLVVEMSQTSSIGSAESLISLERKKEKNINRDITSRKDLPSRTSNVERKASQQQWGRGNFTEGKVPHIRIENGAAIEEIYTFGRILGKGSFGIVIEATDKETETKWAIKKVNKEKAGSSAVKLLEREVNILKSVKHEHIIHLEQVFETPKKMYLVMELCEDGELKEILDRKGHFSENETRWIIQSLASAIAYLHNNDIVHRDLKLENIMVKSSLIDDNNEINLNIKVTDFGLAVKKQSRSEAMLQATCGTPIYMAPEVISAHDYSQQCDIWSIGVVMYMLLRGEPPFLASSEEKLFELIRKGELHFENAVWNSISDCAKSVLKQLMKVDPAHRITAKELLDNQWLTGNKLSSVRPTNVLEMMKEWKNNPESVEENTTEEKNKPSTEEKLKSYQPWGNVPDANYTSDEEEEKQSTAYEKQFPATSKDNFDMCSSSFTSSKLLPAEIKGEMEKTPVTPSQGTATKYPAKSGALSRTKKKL

PAK3 (human) = PAK3 (human) (UniProt O75914)
MUSK (human) = MUSK (human) (UniProt O15146)
MINK1 (human) = MINK1 (human) (UniProt Q8N4C8)
FLT4 (human) = FLT4 (human) (UniProt P35916)
Chain of FLT4 (human) (P35916 whole entry, looked up): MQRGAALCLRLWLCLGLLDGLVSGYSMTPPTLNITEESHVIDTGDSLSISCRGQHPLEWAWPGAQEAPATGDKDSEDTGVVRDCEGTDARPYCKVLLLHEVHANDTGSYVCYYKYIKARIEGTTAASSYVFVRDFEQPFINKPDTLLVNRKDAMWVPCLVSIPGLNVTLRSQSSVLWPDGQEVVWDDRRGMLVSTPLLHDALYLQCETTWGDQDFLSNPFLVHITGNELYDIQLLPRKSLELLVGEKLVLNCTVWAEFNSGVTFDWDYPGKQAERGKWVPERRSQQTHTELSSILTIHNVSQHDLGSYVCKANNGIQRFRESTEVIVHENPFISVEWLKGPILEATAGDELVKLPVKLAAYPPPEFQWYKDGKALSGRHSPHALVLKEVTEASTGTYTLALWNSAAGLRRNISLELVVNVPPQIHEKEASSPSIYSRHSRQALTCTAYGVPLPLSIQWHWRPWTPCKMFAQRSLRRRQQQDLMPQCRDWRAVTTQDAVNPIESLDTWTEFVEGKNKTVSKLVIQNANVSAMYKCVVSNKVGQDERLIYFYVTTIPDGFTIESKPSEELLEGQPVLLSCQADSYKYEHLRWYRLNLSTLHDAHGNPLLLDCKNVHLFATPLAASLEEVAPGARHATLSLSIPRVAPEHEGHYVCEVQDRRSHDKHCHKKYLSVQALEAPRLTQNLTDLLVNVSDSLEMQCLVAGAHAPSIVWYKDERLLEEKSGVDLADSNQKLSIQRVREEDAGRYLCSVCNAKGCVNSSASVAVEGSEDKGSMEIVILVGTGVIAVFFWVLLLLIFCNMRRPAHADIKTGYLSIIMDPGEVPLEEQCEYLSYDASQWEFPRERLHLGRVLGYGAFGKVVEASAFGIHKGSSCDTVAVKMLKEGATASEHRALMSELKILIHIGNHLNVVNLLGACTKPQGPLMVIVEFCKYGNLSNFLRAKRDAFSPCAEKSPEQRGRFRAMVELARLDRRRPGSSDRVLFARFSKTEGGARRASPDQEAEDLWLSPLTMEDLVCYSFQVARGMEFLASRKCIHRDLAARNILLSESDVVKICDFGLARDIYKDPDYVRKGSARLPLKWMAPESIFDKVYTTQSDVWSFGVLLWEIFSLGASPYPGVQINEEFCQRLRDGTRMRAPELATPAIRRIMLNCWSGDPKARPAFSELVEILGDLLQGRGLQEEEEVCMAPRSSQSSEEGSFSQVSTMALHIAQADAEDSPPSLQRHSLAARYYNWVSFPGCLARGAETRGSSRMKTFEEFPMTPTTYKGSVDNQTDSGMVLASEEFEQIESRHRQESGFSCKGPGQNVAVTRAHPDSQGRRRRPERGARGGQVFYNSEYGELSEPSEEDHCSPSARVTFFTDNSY

TYRO3 (human) = TYRO3 (human) (UniProt Q06418)
PASK (human) = PASK (human) (UniProt Q96RG2)
MAPK9 (human) = MAPK9 (human) (UniProt P45984)
LCK (human) = LCK (human) (UniProt P06239)
CDK9 CCNT1 (human) = CDK9 CCNT1 (human) (UniProt O60563+P50750)
Chain of CDK9 CCNT1 (human) (O60563 whole entry, looked up): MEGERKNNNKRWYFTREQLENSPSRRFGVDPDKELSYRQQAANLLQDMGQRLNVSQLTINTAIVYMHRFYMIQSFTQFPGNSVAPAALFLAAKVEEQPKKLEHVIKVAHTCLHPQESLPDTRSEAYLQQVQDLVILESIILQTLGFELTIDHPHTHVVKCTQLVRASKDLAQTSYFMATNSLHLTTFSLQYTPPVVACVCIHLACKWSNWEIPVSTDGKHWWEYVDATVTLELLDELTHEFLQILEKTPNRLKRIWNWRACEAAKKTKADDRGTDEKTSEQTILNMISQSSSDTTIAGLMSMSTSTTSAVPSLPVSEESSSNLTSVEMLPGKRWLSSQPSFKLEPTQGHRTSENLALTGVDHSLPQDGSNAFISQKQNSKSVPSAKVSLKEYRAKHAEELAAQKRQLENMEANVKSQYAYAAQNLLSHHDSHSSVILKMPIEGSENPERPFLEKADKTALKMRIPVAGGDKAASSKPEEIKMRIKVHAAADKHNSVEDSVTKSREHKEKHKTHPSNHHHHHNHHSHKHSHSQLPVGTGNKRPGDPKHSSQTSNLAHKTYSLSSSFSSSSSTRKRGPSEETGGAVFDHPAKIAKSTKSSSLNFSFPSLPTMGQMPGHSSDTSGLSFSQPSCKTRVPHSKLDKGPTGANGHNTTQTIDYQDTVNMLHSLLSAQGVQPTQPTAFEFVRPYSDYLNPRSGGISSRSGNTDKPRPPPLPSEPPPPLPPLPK
Chain of CDK9 CCNT1 (human) (P50750 whole entry, looked up): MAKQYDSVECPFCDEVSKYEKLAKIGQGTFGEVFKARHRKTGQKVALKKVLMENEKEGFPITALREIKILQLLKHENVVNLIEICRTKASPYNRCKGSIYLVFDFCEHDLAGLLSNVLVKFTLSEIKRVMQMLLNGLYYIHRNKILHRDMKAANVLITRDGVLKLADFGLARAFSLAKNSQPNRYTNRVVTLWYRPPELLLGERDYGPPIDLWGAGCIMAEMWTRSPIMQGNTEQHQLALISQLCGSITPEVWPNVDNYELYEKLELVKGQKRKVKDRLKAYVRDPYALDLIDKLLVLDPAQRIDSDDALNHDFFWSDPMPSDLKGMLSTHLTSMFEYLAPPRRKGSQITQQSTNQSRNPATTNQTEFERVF

FYN (human) = FYN (human) (UniProt P06241)
Chain of FYN (human) (P06241 whole entry, looked up): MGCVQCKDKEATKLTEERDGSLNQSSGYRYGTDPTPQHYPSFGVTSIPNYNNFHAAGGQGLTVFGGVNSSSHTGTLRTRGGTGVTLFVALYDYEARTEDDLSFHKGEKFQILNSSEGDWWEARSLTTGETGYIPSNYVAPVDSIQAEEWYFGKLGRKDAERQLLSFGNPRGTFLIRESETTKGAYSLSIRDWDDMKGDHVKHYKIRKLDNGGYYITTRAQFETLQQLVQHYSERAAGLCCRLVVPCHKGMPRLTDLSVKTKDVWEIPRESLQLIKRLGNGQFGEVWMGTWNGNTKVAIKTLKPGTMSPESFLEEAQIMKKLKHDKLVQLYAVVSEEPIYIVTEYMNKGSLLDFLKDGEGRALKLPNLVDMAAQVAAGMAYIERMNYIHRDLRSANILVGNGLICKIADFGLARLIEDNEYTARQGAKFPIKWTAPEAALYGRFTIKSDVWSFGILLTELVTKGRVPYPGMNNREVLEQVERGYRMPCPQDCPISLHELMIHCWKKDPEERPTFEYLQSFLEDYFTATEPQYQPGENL

PRKCB1 (human) = PRKCB1 (human) (UniProt P05771)
MET (human) = MET (human) (UniProt P08581)
EEF2K (human) = EEF2K (human) (UniProt O00418)
DMPK (human) = DMPK (human) (UniProt Q09013)
MTOR FKBP1A (human) = MTOR FKBP1A (human) (UniProt P42345+P62942)
[3] = system: TEK (human), Q02763 [Y897S]
[4] = system: TEK (human), Q02763 [R849W]
[5] = system: ABL1 (human), P00519 [H396P]
[6] = system: BTK (human), Q06187 [R28H]
ULK3 (human) = ULK3 (human) (UniProt Q6PHR2)
PLK1 (human) = PLK1 (human) (UniProt P53350)
[7] = system: ABL1 (human), P00519 [Q252H]
TAOK1 (human) = TAOK1 (human) (UniProt Q7L7X3)
[8] = system: RET (human), P07949 [V804L]
TXK (human) = TXK (human) (UniProt P42681)
[9] = system: SRC (human), P12931 [T341M]
[10] = system: RET (human), P07949 [V804M]
MTOR (human) = MTOR (human) (UniProt P42345)

Chain of ABL2 (human) (P42684 whole entry, looked up): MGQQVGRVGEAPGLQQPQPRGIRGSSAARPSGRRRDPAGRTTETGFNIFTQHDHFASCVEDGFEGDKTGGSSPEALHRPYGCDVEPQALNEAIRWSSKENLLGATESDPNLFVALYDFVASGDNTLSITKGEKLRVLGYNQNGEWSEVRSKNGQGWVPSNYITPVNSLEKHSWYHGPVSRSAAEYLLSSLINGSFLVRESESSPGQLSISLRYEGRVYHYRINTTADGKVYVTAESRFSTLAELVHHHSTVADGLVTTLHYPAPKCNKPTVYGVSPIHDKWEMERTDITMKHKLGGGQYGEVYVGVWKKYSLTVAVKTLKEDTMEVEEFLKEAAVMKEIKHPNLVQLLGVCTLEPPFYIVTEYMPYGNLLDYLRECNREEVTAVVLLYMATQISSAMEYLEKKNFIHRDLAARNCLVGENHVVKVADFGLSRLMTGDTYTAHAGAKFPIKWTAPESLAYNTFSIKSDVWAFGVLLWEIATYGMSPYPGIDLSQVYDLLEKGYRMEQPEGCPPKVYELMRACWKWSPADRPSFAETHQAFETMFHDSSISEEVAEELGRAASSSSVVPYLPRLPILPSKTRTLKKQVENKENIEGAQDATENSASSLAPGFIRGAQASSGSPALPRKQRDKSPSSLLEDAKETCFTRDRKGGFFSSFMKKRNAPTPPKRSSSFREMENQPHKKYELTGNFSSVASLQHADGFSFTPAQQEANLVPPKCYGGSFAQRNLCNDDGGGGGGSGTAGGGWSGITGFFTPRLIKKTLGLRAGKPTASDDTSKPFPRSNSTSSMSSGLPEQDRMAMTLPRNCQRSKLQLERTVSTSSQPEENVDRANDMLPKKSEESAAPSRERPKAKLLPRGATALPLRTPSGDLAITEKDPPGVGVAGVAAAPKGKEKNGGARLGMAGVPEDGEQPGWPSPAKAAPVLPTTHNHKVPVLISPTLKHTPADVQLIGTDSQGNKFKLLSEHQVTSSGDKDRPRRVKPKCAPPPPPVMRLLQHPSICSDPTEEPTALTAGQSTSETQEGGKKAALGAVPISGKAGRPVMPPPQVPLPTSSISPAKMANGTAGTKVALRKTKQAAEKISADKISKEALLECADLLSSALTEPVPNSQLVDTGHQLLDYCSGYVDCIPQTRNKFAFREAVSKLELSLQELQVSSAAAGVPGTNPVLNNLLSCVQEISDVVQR

Structure (SMILES): O=C(NCCCNc1nc(Nc2cccc(NC(=O)N3CCCC3)c2)ncc1I)c1cccs1
residual activity (MARK2 (human); compound 1.0 µM): 9% | residual activity (ABL2 (human); compound 1.0 µM): 97% | residual activity (CSNK2A2 (human); compound 1.0 µM): 109% | residual activity ([1]; compound 1.0 µM): 76% | residual activity (CAMK2D (human); compound 1.0 µM): 3% | residual activity ([2]; compound 1.0 µM): 82% | residual activity (MAPKAPK3 (human); compound 1.0 µM): 107% | residual activity (PRKCE (human); compound 1.0 µM): 84% | residual activity (AXL (human); compound 1.0 µM): 93% | residual activity (MAPK10 (human); compound 1.0 µM): 68% | residual activity (STK33 (human); compound 1.0 µM): 82% | residual activity (PAK3 (human); compound 1.0 µM): 106% | residual activity (MUSK (human); compound 1.0 µM): 89% | residual activity (MINK1 (human); compound 1.0 µM): 97% | residual activity (FLT4 (human); compound 1.0 µM): 13% | residual activity (TYRO3 (human); compound 1.0 µM): 84% | residual activity (PASK (human); compound 1.0 µM): 103% | residual activity (MAPK9 (human); compound 1.0 µM): 84% | residual activity (LCK (human); compound 1.0 µM): 76% | residual activity (CDK9 CCNT1 (human); compound 1.0 µM): 70% | residual activity (FYN (human); compound 1.0 µM): 98% | residual activity (PRKCB1 (human); compound 1.0 µM): 72% | residual activity (MET (human); compound 1.0 µM): 137% | residual activity (EEF2K (human); compound 1.0 µM): 106% | residual activity (DMPK (human); compound 1.0 µM): 94%

Structure (SMILES): O=C(N[C@@H](COc1ccc2[nH]c(=O)[nH]c2c1)c1ccccc1)c1cccn(Cc2ccc(F)c(F)c2)c1=O
residual activity (MTOR FKBP1A (human); compound 10.0 µM): 103% | residual activity ([3]; compound 10.0 µM): 111% | residual activity (MARK2 (human); compound 10.0 µM): 96% | residual activity ([4]; compound 10.0 µM): 104% | residual activity (ABL2 (human); compound 10.0 µM): 112% | residual activity ([5]; compound 10.0 µM): 114% | residual activity (CSNK2A2 (human); compound 10.0 µM): 105% | residual activity ([1]; compound 10.0 µM): 111% | residual activity (CAMK2D (human); compound 10.0 µM): 92% | residual activity ([6]; compound 10.0 µM): 106% | residual activity ([2]; compound 10.0 µM): 107% | residual activity (MAPKAPK3 (human); compound 10.0 µM): 102% | residual activity (PRKCE (human); compound 10.0 µM): 96% | residual activity (AXL (human); compound 10.0 µM): 107% | residual activity (MAPK10 (human); compound 10.0 µM): 105% | residual activity (STK33 (human); compound 10.0 µM): 104% | residual activity (ULK3 (human); compound 10.0 µM): 99% | residual activity (PAK3 (human); compound 10.0 µM): 88% | residual activity (MUSK (human); compound 10.0 µM): 98% | residual activity (PLK1 (human); compound 10.0 µM): 116% | residual activity ([7]; compound 10.0 µM): 69% | residual activity (TAOK1 (human); compound 10.0 µM): 96% | residual activity ([8]; compound 10.0 µM): 112% | residual activity (MINK1 (human); compound 10.0 µM): 113% | residual activity (FLT4 (human); compound 10.0 µM): 109% | residual activity (TXK (human); compound 10.0 µM): 138% | residual activity (TYRO3 (human); compound 10.0 µM): 118% | residual activity (PASK (human); compound 10.0 µM): 111% | residual activity ([9]; compound 10.0 µM): 102% | residual activity (MAPK9 (human); compound 10.0 µM): 100% | residual activity (LCK (human); compound 10.0 µM): 108% | residual activity (CDK9 CCNT1 (human); compound 10.0 µM): 102% | residual activity (FYN (human); compound 10.0 µM): 89% | residual activity ([10]; compound 10.0 µM): 109% | residual activity (PRKCB1 (human); compound 10.0 µM): 95% | residual activity (MTOR (human); compound 10.0 µM): 102% | residual activity (MET (human); compound 10.0 µM): 95% | residual activity (EEF2K (human); compound 10.0 µM): 98% | residual activity (DMPK (human); compound 10.0 µM): 105%

Structure (SMILES): COc1ccc(C#Cc2ccc3ncc4ncn(-c5ccc(CCN)cc5)c4c3c2)cc1
residual activity (MARK2 (human); compound 10.0 µM): 108% | residual activity (ABL2 (human); compound 10.0 µM): 78% | residual activity (CSNK2A2 (human); compound 10.0 µM): 90% | residual activity ([1]; compound 10.0 µM): 92% | residual activity (CAMK2D (human); compound 10.0 µM): 11% | residual activity ([2]; compound 10.0 µM): 65% | residual activity (MAPKAPK3 (human); compound 10.0 µM): 84% | residual activity (PRKCE (human); compound 10.0 µM): 81% | residual activity (AXL (human); compound 10.0 µM): 3% | residual activity (MAPK10 (human); compound 10.0 µM): 12% | residual activity (STK33 (human); compound 10.0 µM): 58% | residual activity (PAK3 (human); compound 10.0 µM): 38% | residual activity (MUSK (human); compound 10.0 µM): 99% | residual activity (MINK1 (human); compound 10.0 µM): 23% | residual activity (FLT4 (human); compound 10.0 µM): 1% | residual activity (TYRO3 (human); compound 10.0 µM): 19% | residual activity (PASK (human); compound 10.0 µM): 4% | residual activity (MAPK9 (human); compound 10.0 µM): 77% | residual activity (LCK (human); compound 10.0 µM): 65% | residual activity (CDK9 CCNT1 (human); compound 10.0 µM): 126% | residual activity (FYN (human); compound 10.0 µM): 114% | residual activity (PRKCB1 (human); compound 10.0 µM): 99% | residual activity (MET (human); compound 10.0 µM): 17% | residual activity (EEF2K (human); compound 10.0 µM): 93% | residual activity (DMPK (human); compound 10.0 µM): 97%

Structure (SMILES): Cc1n[nH]c2c1c(=O)n(CCCN)c1ccc(Cl)cc21
residual activity (MARK2 (human); compound 1.0 µM): 7% | residual activity (ABL2 (human); compound 1.0 µM): 111% | residual activity (MAPK1 (mouse); compound 1.0 µM): 90% | residual activity ([1]; compound 1.0 µM): 107% | residual activity (MAPKAPK3 (human); compound 1.0 µM): 105% | residual activity (PRKCE (human); compound 1.0 µM): 90% | residual activity (AXL (human); compound 1.0 µM): 96% | residual activity (MAPK10 (human); compound 1.0 µM): 110% | residual activity (PRKACA (cow); compound 1.0 µM): 81% | residual activity (MUSK (human); compound 1.0 µM): 91% | residual activity (MINK1 (human); compound 1.0 µM): 134% | residual activity (TYRO3 (human); compound 1.0 µM): 111% | residual activity (MAPK9 (human); compound 1.0 µM): 95% | residual activity (LCK (human); compound 1.0 µM): 82% | residual activity (FYN (human); compound 1.0 µM): 71% | residual activity (MET (human); compound 1.0 µM): 117% | residual activity (DMPK (human); compound 1.0 µM): 114%

The remaining lines, values ahead:

residual activity (MAPK1 (mouse); compound 10.0 µM): 11% | residual activity (PRKACA (cow); compound 10.0 µM): 45%
Structure (SMILES): CC(C)(C)c1nc2c3ccc(F)cc3c3c(=O)[nH]ccc3c2[nH]1

residual activity (MTOR FKBP1A (human); compound 1.0 µM): 94% | residual activity ([3]; compound 1.0 µM): 82% | residual activity (MARK2 (human); compound 1.0 µM): 87% | residual activity ([4]; compound 1.0 µM): 74% | residual activity (ABL2 (human); compound 1.0 µM): 104% | residual activity ([5]; compound 1.0 µM): 49% | residual activity (CSNK2A2 (human); compound 1.0 µM): 112% | residual activity ([1]; compound 1.0 µM): 93% | residual activity (CAMK2D (human); compound 1.0 µM): 25% | residual activity ([6]; compound 1.0 µM): 100% | residual activity ([2]; compound 1.0 µM): 36% | residual activity (MAPKAPK3 (human); compound 1.0 µM): 95% | residual activity (PRKCE (human); compound 1.0 µM): 106% | residual activity (AXL (human); compound 1.0 µM): 18% | residual activity (MAPK10 (human); compound 1.0 µM): 71% | residual activity (STK33 (human); compound 1.0 µM): 41% | residual activity (ULK3 (human); compound 1.0 µM): 47% | residual activity (PAK3 (human); compound 1.0 µM): 78% | residual activity (MUSK (human); compound 1.0 µM): 96% | residual activity (PLK1 (human); compound 1.0 µM): 81% | residual activity ([7]; compound 1.0 µM): 54% | residual activity (TAOK1 (human); compound 1.0 µM): 95% | residual activity ([8]; compound 1.0 µM): 2% | residual activity (MINK1 (human); compound 1.0 µM): 117% | residual activity (FLT4 (human); compound 1.0 µM): 2% | residual activity (TXK (human); compound 1.0 µM): 84% | residual activity (TYRO3 (human); compound 1.0 µM): 94% | residual activity (PASK (human); compound 1.0 µM): 109% | residual activity ([9]; compound 1.0 µM): 55% | residual activity (MAPK9 (human); compound 1.0 µM): 116% | residual activity (LCK (human); compound 1.0 µM): 58% | residual activity (CDK9 CCNT1 (human); compound 1.0 µM): 96% | residual activity (FYN (human); compound 1.0 µM): 79% | residual activity ([10]; compound 1.0 µM): 13% | residual activity (PRKCB1 (human); compound 1.0 µM): 94% | residual activity (MTOR (human); compound 1.0 µM): 89% | residual activity (MET (human); compound 1.0 µM): 96% | residual activity (EEF2K (human); compound 1.0 µM): 115% | residual activity (DMPK (human); compound 1.0 µM): 100%
Structure (SMILES): C[C@@H](Nc1nc2c(C#CC3CC3)c[nH]c(=O)c2c2cc(-c3cn[nH]c3)ccc12)C(C)(C)C

— the kinase profiling compilation of Christmann-Franck et al. (2016)
